The results in this text go back to the METLIN SMRT retention time set (Domingo-Almenara et al. 2019).

The nature of this data set: gradient 5% acetonitrile 3 min, to 50% in 2 min, to 85% in 15 min, held 3 min, 100 µL/min. The conditions noted are these: column: Zorbax Extend-C18 2.1 x 50 mm; eluents: water / acetonitrile, 0.1% formic acid. The procedure, abridged: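 Over 3 months, pure standards in mixtures of ~100 molecules were run by HPLC coupled to a quadrupole time-of-flight mass spectrometer in positive and negative ionization mode. The column was a Zorbax Extend-C18 (2.1 × 50 mm, 1.8 μm) at 100 μL/min, eluted with water and acetonitrile each holding 0.1% formic acid, with 40 μL dead and 900 μL dwell volumes. Retention time was determined from adduct peaks chosen by software and checked manually.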
Compound `COc1ccc2c(c1)CCN(C(=O)c1csc(-n3cccc3)n1)C2` returned an RP-LC retention time of 895 s. The compound `CN(C(=O)Cn1cnc2nc3c(cc2c1=O)CCCC3)c1ccccc1F` gave an RP-LC retention time of 722 s. Under `CC1=C(c2ccccc2)S(=O)(=O)N=C1N1CCCN(C(=O)C(C)c2ccccc2)CC1` (stereo not drawn) stands 873 s; under `CN1c2ccccc2C(=O)NC12CCN(C(=O)c1ccc(F)c(F)c1)CC2`, 746 s; under `Cc1ccc(-c2nccn3cc(C(=O)NC(C)C)nc23)cc1`, 883 s.

The compound `C[C@]12CCC(=O)C[C@@H]1CC[C@@H]1[C@@H]2CC[C@@]2(C)[C@H]1CC[C@]2(C)O` displayed an RP-LC retention time of 1050 s. Under `COCCCN(CC(=O)N1CCc2sccc2C1COc1ccccc1F)C(C)=O` (stereo not drawn) stands 764 s. With `CCOC(=O)c1c(C)n(C)c2cc(Br)c(OC)cc12`, the RP-LC retention time is 1090 s.

`CC(C)c1cc(NCc2ccccn2)n2ncc(-c3ccccc3)c2n1` gave an RP-LC retention time of 1010 s.

Regarding `CCN1C(=O)Cc2ccccc2C1C(=O)NCc1ccc2c(c1)OCO2` (stereo not drawn), the RP-LC retention time was found to be 727 s. Turning to `Cc1ccc(NC(=O)Nc2ccc3nnc(C)n3c2)cc1`, the RP-LC retention time came out at 673 s. Under `CCCN(CC(=O)N1CCc2sccc2C1COc1ccccc1OC)C(=O)C1CC1` (stereo not drawn) stands 922 s; under `COc1ccc(NC(=O)c2cc(C(C)C)n(C3CCS(=O)(=O)C3)n2)cc1` (stereo not drawn), 831 s.

Take `Cn1cnnc1SCC(=O)Nc1ccc(F)cc1`: the RP-LC retention time is 603 s. Next, `O=C(NCc1ccc(F)cc1)c1cc(N2CCCC2)n2nccc2n1`: 957 s; `Cc1cc(S(=O)(=O)Nc2ccc(Cn3cncn3)cc2)ccc1F`: 743 s; `O=C(C1CCCN(c2ccncc2)C1)N1CCCCCC1` (stereo not drawn): 603 s. Under `Cc1cc(-n2c(C)nc3ccccc3c2=O)ccc1NC(=O)C(C)Oc1cccc(Cl)c1` (stereo not drawn) stands 935 s; under `Cc1[nH]c(C(=O)N2CCC(CC(=O)NCCC3=CCCCC3)CC2)c(C)c1C`, 910 s; under `COC(=O)C1=CN(C2CC2)c2cc(N3CCN(c4ccccn4)CC3)c(F)cc2S1(=O)=O`, 637 s. Next, `Cc1ccc(Cn2c(=O)c(N3CCN(C(=O)NCC4CCCO4)CC3)nc3ccccc32)cc1` (stereo not drawn): 908 s; `CCn1c(=O)c(SCC(=O)N2CCN(c3ccccn3)CC2)nc2ccccc21`: 612 s. Compound `CC1CCCN(c2nn(CC(=O)Nc3ccc4c(c3)OCCO4)c(=O)c3ccccc23)C1` (stereo not drawn) gave an RP-LC retention time of 1030 s.

`CN1C(=O)c2ccccc2Oc2ccc(C(=O)N3CCCCC3)cc21`: the RP-LC retention time came out at 807 s. Compound `COC(=O)c1cc2c(=O)n(-c3cccc(Cl)c3)ccc2nc1C` registered an RP-LC retention time of 878 s.

`Cc1ccccc1CC(=O)N1CCN(c2cc(C)n3cnnc3n2)CC1` registered an RP-LC retention time of 608 s. `CCCN1CCN(C(=O)c2c(C)sc3ccn(CC(C)C)c(=O)c23)CC1` displayed an RP-LC retention time of 618 s.

`Cc1ccc(NC(=O)C2CCCN2S(=O)(=O)c2cc3c(cc2C)NC(=O)CO3)cc1F` (stereo not drawn) showed an RP-LC retention time of 808 s. Next, `O=C(c1cccc(Cl)c1)N1CCC2(CC1)N=C(c1cccc(Br)c1)NO2`: 970 s; `Cc1ccc(Cl)cc1N1CCN(S(=O)(=O)c2nn(C)cc2C(=O)NCCN(C)C)CC1`: 732 s; `CSc1ccc(NC(=O)NC2CCN(c3ccc(C)c(C)c3)C2=O)cc1` (stereo not drawn): 897 s.

Turning to `Cc1ccc2ncn(C3CCN(S(=O)(=O)c4ccc(C(C)C)cc4)CC3)c(=O)c2c1`, the RP-LC retention time was determined as 1050 s. Under `O=C(CN1CCCC1=O)NCc1ccc(F)cc1Cl` stands 656 s.
